Results taken from PMC10712727, “Safety, Tolerability, and Pharmacokinetics of Senaparib, a Novel PARP1/2 Inhibitor, in Chinese Patients With Advanced Solid Tumors: A Phase I Trial” (The Oncologist, 2023).

Test system: patients with advanced solid tumors
Experiment: Safety: treatment-emergent and senaparib-related adverse events graded per NCI CTCAE v4.03
Type: in vivo
Experimental: This phase I, open-label, multicenter, dose-escalation, and dose-expansion study was conducted at three national clinical institutions in China. […] At baseline, all patients enrolled in the dose-escalation phase had to have at least one evaluable lesion, and those in the dose-expansion period had to have at least one measurable lesion, according to Response Evaluation Criteria in Solid Tumors version 1.1 (RECIST v1.1).[16] Entry to the dose-expansion cohort required the presence of a BRCA mutation, with the exception of patients with ovarian carcinoma, fallopian tube carcinoma, and primary peritoneal carcinoma. Full study eligibility criteria are provided in Supplementary Table S1.
Dose escalation was conducted using a modified Fibonacci 3 + 3 method (Supplementary Fig. S1).[17] Patients were administered oral senaparib from a planned starting dose of 2 mg once daily (QD), with preliminary dose escalation to 120 mg via nine dose groups, in order of their entry into the study. At a given dose level, each patient received a single dose of senaparib followed by a 7-day washout period. They then entered a continuous dosing period to confirm the safety and PK profile, in which they received senaparib QD from day 1 to day 21 of each 3-week cycle. Progression to the next higher dose required approval from the Data Safety Monitoring Committee (DSMC) upon review of the safety and PK data of the previous dose. A 50-mg twice-daily (BID) dosing group was added (planned enrollment, n = 6 patients) based on a DSMC review of the safety, PK, and efficacy analysis of the completed QD dose groups in the phase I clinical trial of senaparib dose escalation in Australia (NCT03507543), which commenced prior to the start of this trial.
The dose-expansion period included 3 populations: dose groups in which at least one patient achieved complete response (CR) or partial response (PR) per RECIST v1.1[16] and 1 dose group higher (evaluated for safety), as well as the dose group at the maximum tolerated dose (MTD)/recommended phase II dose (RP2D). Each of these groups included those patients in the respective dose-escalation group plus a planned additional 10 patients (approximately 20 patients in the MTD/RP2D group) with BRCA^mut+ solid tumors (ovarian, breast, or prostate cancer were preferred, and ovarian cancer could be BRCA wild type). Patients received senaparib monotherapy orally QD or BID (50-mg dose only) over each 3-week cycle until disease progression or unacceptable toxicity.
DLTs were predefined toxicities (Supplementary Table S2) recorded over the 7 days following the single-dose administration of senaparib and during the first treatment cycle (day 1-day 21) for each dose group in the dose-escalation period only. The MTD was defined as the maximum dose at which ≤1/6 patients experienced a DLT. Senaparib PK parameters were derived from blood samples collected from patients after the single administration, and at regular intervals during the first cycle of the dose-escalation and dose-expansion periods. Plasma concentrations of senaparib were determined using high-performance liquid chromatography-tandem mass spectrometry. Tumor response was assessed every 6 weeks per RECIST v1.1,[16] recording objective response rate (ORR), disease control rate (DCR), duration of response (DOR), and progression-free survival (PFS) by dose level for all patients and for those harboring BRCA^mut+ tumors.

O=C(c1cc(Cn2c(=O)[nH]c(=O)c3c(F)cccc32)ccc1F)N1CCN(c2ncccn2)CC1 [Senaparib]
TRAEs Grade ≥3, events (40 mg QD n = 3): 0 n ev | TRAEs Grade ≥3, patients (40 mg QD n = 3): 0 n (%) | TRAEs, events (40 mg QD n = 3): 6 n ev | TRAEs, patients (40 mg QD n = 3): 3 (100) n (%) | Vomiting TRAE, All (40 mg QD n = 3): 0 n (%) | Vomiting TRAE, Gr≥3 (40 mg QD n = 3): 0 n (%) | WBC decreased TRAE, All (40 mg QD n = 3): 0 n (%) | WBC decreased TRAE, Gr≥3 (40 mg QD n = 3): 0 n (%) | ALT increased TRAE, All (50 mg BID n = 4): 1 (25.0) n (%) | ALT increased TRAE, Gr≥3 (50 mg BID n = 4): 0 n (%) | AST increased TRAE, All (50 mg BID n = 4): 1 (25.0) n (%) | AST increased TRAE, Gr≥3 (50 mg BID n = 4): 0 n (%) | Anemia TRAE, All (50 mg BID n = 4): 3 (75.0) n (%) | Anemia TRAE, Gr≥3 (50 mg BID n = 4): 2 (50.0) n (%) | Any TEAE, All (50 mg BID n = 4): 4 (100) n (%) | Any TEAE, Gr≥3 (50 mg BID n = 4): 3 (75.0) n (%) | Any TEAE, events (50 mg BID n = 4): 32 n ev | Any TEAE, patients (50 mg BID n = 4): 4 (100) n (%) | Any TRAE, All (50 mg BID n = 4): 4 (100) n (%) | Any TRAE, Gr≥3 (50 mg BID n = 4): 2 (50.0) n (%) | Appetite decreased TRAE, All (50 mg BID n = 4): 0 n (%) | Appetite decreased TRAE, Gr≥3 (50 mg BID n = 4): 0 n (%) | Asthenia TRAE, All (50 mg BID n = 4): 1 (25.0) n (%) | Asthenia TRAE, Gr≥3 (50 mg BID n = 4): 0 n (%) | Blood bilirubin increased TRAE, All (50 mg BID n = 4): 0 n (%) | Blood bilirubin increased TRAE, Gr≥3 (50 mg BID n = 4): 0 n (%) | Blood creatinine increased TRAE, All (50 mg BID n = 4): 0 n (%) | Blood creatinine increased TRAE, Gr≥3 (50 mg BID n = 4): 0 n (%) | Hypokalemia TRAE, All (50 mg BID n = 4): 0 n (%) | Hypokalemia TRAE, Gr≥3 (50 mg BID n = 4): 0 n (%) | Nausea TRAE, All (50 mg BID n = 4): 2 (50.0) n (%) | Nausea TRAE, Gr≥3 (50 mg BID n = 4): 0 n (%) | Neutrophil count decreased TRAE, All (50 mg BID n = 4): 0 n (%) | Neutrophil count decreased TRAE, Gr≥3 (50 mg BID n = 4): 0 n (%) | Platelet count decreased TRAE, All (50 mg BID n = 4): 1 (25.0) n (%) | Platelet count decreased TRAE, Gr≥3 (50 mg BID n = 4): 0 n (%) | SAEs, events (50 mg BID n = 4): 1 n ev | SAEs, patients (50 mg BID n = 4): 1 (25.0) n (%) | TEAE Grade ≥3, events (50 mg BID n = 4): 3 n ev | TEAE Grade ≥3, patients (50 mg BID n = 4): 3 (75.0) n (%) | TEAEs leading to death, events (50 mg BID n = 4): 0 n ev | TEAEs leading to death, patients (50 mg BID n = 4): 0 n (%) | TEAEs leading to dose discontinuation, events (50 mg BID n = 4): 0 n ev | TEAEs leading to dose discontinuation, patients (50 mg BID n = 4): 0 n (%) | TEAEs leading to dose interruption, events (50 mg BID n = 4): 1 n ev | TEAEs leading to dose interruption, patients (50 mg BID n = 4): 1 (25.0) n (%) | TEAEs leading to dose reduction, events (50 mg BID n = 4): 1 n ev | TEAEs leading to dose reduction, patients (50 mg BID n = 4): 1 (25.0) n (%) | TRAEs Grade ≥3, events (50 mg BID n = 4): 2 n ev | TRAEs Grade ≥3, patients (50 mg BID n = 4): 2 (50.0) n (%) | TRAEs, events (50 mg BID n = 4): 26 n ev | TRAEs, patients (50 mg BID n = 4): 4 (100) n (%) | Vomiting TRAE, All (50 mg BID n = 4): 2 (50.0) n (%) | Vomiting TRAE, Gr≥3 (50 mg BID n = 4): 0 n (%) | WBC decreased TRAE, All (50 mg BID n = 4): 2 (50.0) n (%) | WBC decreased TRAE, Gr≥3 (50 mg BID n = 4): 0 n (%) | ALT increased TRAE, All (60 mg QD n = 5): 0 n (%) | ALT increased TRAE, Gr≥3 (60 mg QD n = 5): 0 n (%)
